The target in the experiment is Adenosine kinase (Rattus norvegicus, UniProt Q64640). The experiment is described as follows: ADK Inhibition Assay. Conditions: pH 7.5; 23 °C. On the procedure: ADK activity was monitored by a radiochemical assay, which measures the conversion of radioactive Ado ([U-14C] adenosine or [2-3H] adenosine) to AMP in the presence of ATP and MgCl2. The radioactivity incorporated was directly proportional to the conversion rate. The reaction was terminated by aliquoting the reaction mixture onto DE-81 anion exchange filter disks. The filter disks were then dried, washed, and counted. Bound radioactivity was determined by standard scintillation spectrometry at an efficiency of 55%.

The structures appear in SMILES notation. Bounds are passed on as bounds.

The text below walks through data of BindingDB's records for doi:10.1021/jm060189a (Abbott Laboratories, 2006).

Chain of Adenosine kinase (Q64640 whole entry): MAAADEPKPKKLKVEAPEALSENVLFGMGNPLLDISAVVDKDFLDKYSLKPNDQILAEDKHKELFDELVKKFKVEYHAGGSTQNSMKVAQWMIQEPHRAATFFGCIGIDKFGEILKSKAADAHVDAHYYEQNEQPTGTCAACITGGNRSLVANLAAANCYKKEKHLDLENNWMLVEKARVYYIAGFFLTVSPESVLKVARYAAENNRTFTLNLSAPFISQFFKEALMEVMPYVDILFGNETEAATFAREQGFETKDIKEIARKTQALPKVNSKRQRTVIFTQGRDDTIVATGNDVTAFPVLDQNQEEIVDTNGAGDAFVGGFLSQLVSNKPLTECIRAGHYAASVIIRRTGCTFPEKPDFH

One may read the IC50 as the concentration that gives 50% inhibition. The molecule `Cc1nc(N)c(-c2ccccc2)c(C#Cc2ccc(N(C)C)cc2)n1` had an IC50 of more than 1000 nM.
